Data set [1] has as its system CL1-5 human lung cancer cells engrafted in BALB/c nude mice. Kind of data set: Tumor growth in CL1-5 cell-engrafted BALB/c nude mice. The settings on record: CL1-5 engrafted nude mice.
Description: The study was carried out as follows: inoculating BALB/c mice with of the CL1-5 human lung cancer cells; dividing the mice into 4 groups 7 days after inoculation with 8 mice in each group and treating them once every two days for 14 days respectively with (i) 0.4 ml of 10% DMSO, (ii) 0.4 ml of 10% DMSO containing 25 μmol of docetaxel, (iii) 0.4 ml of 10% DMSO containing 15.5 μmol of 5-demethylnobiletin, and (iv) 0.4 ml of 10% DMSO containing 25 μmol of docetaxel and 15.5 μmol of 5-demethylnobiletin; growing mice without any treatment for another 14 days; measuring tumor sizes after animal sacrificing.
The experimental BALB/c nude mice were divided into 4 groups, with 8 in each group. Each mouse was inoculated with 0.1 ml of the CL1-5 human lung cancer cells at a density of 10^6 cells/ml. 7 days after of the inoculation, the 4 groups of mice were infused respectively with (i) 27 μl of 10% DMSO; (ii) 25 μmol of docetaxel in a 10% DMSO solution (iii) 15.5 μmol of 5-demethylnobiletin in a 10% DMSO solution; and (iv) 25 μmol of docetaxel and 15.5 μmol of 5-demethylnobiletin in a 10% DMSO solution at a frequency of once every 2 days for 14 days. […]
[1−(fa)2], (fa)1 and (fa)2 are inhibition rates of drug1 and drug2, respectively, and (fa)1,2 is the calculated inhibition rate of combining drug1 and drug2, which is also a theoretical additive effect. […]
The format of data set [2] is in vivo, mouse. Here is the method: BALB/c nude mice were divided into two groups, with 8 mice in each group. […] Then, liver, spleen, and kidney weights of the mice in each group were measured and blood was collected. Following at RT for 1 h, the blood was centrifuged at 3000 rpm for 10 min at 4° C. to collect serum before stored at −80° C. Clinical chemistry measurements, e.g., levels of AST, ALT, triglyceride (TG), and total cholesterol (TC), were measured by an automatic biochemical analyzer.

The next data set relates to CL1-5 lung cancer cells. Nature of the data set: Growth inhibition of CL1-5 lung cancer cells (cell viability by absorbance). The following applies: Homo sapiens, CL1-5, read-out: IC50 rate of docetaxel for the CL1-5 cells.
[3] abbreviates: 15.5 μmol once every 2 days for 14 days, sacrificed after another 14 days.
The mark [4] stands for this setting: serum, 15.5 μmol once every 2 days for 14 days.

Molecules are shown by their SMILES.

Description for CL1-5 lung cancer cells: The CL1-5 cells were cultured in RPMI 1640 medium containing 100 U/ml penicillin, 100 μg/ml streptomycin, and 10% fetal bovine serum at a temperature of 37° C. and with carbon dioxide at a concentration of 5%. The cultured cells were divided into 8 treatment groups. 4 groups were treated only with docetaxel at different concentrations: 3.125, 6.25, 12.5, and 25.0 nmol of docetaxel per liter of the medium in 100 μl of 10% DMSO solution.

With `COc1ccc(-c2cc(=O)c3c(O)c(OC)c(OC)c(OC)c3o2)cc1OC` [5-Hydroxy-6,7,8,3′,4′-pentamethoxyflavone], the “experimental inhibition rate (fa) of tumor growth” value in data set [1] is reported as 38%. For the same compound, in data set [2] (setting [3]), the Kidney weight is listed as 0.90 ± 0.06 g, the Liver weight is listed as 3.93 ± 0.28 g and the Spleen weight turned out to be 0.21 ± 0.04 g. Moreover, in data set [2] (Table 1 parameters), the “difference between control group and treatment group in organ weights and clinical chemistry” value was “no significant difference”. Also, in data set [2] (setting [4]), the GOT worked out at 91.2 ± 9.8 Unit/L, the GPT is listed as 22.8 ± 5.2 Unit/L, the TC was 77.1 ± 4.9 mg/dL and the TG worked out at 109.5 ± 36.9 mg/dL.

For the compound `CC(=O)O[C@@]12CO[C@@H]1C[C@H](O)[C@@]1(C)C(=O)[C@H](O)C3=C(C)[C@@H](OC(=O)[C@H](O)[C@@H](NC(=O)OC(C)(C)C)c4ccccc4)C[C@@](O)([C@@H](OC(=O)c4ccccc4)[C@H]21)C3(C)C` [docetaxel, 1,7β,10β-trihydroxy-9-oxo-5β,20-epoxytax-11-ene-2α,4,13α-triyl 4-acetate 2-benzoate 13-{(2R,3S)-3-[(tert-butoxycarbonyl)amino]-2-hydroxy-3-phenylpropanoate}, reference compound], the “experimental inhibition rate (fa) of tumor growth” value in data set [1] came to 47.6%. Further, in the data set with CL1-5 lung cancer cells, the IC50 was 28.4 nM.

A word on the IC50: it is the point on the concentration scale where inhibition reaches its midpoint.

These data come from patent publication US9763910B1, “Combination therapy for treating cancer” (Huanggang Normal University, priority 2016, dated 2017).
